The results in this text go back to paper PMC5805748 (2018).

The test system of assay [1] is VAV1-D (DNA, G4) GGGCAGGGAGGGAACTGGG
The assay is described as follows: ITC. Conditions: K+ 40 mM; 20 mM Tris-HCl, pH 7.4; 500 μM ligand into 25 μM DNA.

Assay [2] has as its system 21CTA-D (DNA, G4) GGGCTAGGGCTAGGGCTAGGG
Kind of assay: native PAGE post-staining. The conditions noted are these: 20 μM ThT-E stain; band seen.

Assay [3] deals with ERSI-D (DNA, G4) GGGTAGGGGCAAAGGGGCTGGGG
The assay is described as follows: ITC. The conditions noted are these: K+ 40 mM; 20 mM Tris-HCl, pH 7.4; 500 μM ligand into 25 μM DNA.

Assay [4] has as its system c-myc-D (DNA, G4) TGAGGGTGGGTAGGGTGGGTAA
Kind of assay: UV-vis titration. Conditions: 2 μM ThT-E, 0 to 8 μM DNA; 23 nm red shift.

In assay [5] the test system is 22Ag-D (DNA, G4) AGGGTTAGGGTTAGGGTTAGGG
Kind of assay: ITC. Conditions: K+ 40 mM; 20 mM Tris-HCl, pH 7.4; 500 μM ligand into 25 μM DNA.

The subject of assay [6] is 32 Kras-D (DNA, G4) AGGGCGGTGTGGGAAGAGGGAAGAGGGGGAGG
Kind of assay: fluorescence light-up. The conditions noted are these: K+ 40 mM; 20 mM Tris-HCl, pH 7.4; 2 μM ThT-E, 2 μM DNA; 125-fold.

For assay [7], the system named is dx12-D (DNA, duplex) GCGTGAGTTCGG/CCGAACTCACGC
The assay is described as follows: native PAGE post-staining. Conditions: 20 μM ThT-E stain; no band.

In assay [8] the test system is G-tripl-D (DNA, other) GGTTGGTGTGG
Kind of assay: native PAGE post-staining. The conditions noted are these: 20 μM ThT-E stain; no band.

In assay [9] the test system is ssAf17-D (DNA, single strand) CTGAGTTGTATATATTCG
The assay is described as follows: native PAGE post-staining. The conditions noted are these: 20 μM ThT-E stain; no band; 2.77-fold fluorescence.

The test system of assay [10] is Insulin a2-D (DNA, G4) ACAGGGGTGTGGGGACAGGGGTGTGGGG
Kind of assay: native PAGE post-staining. Conditions: 20 μM ThT-E stain; band seen.

Assay [11] relates to c-myc-D (DNA, G4) TGAGGGTGGGTAGGGTGGGTAA
The assay is described as follows: 1H NMR titration. The conditions noted are these: K+ 40 mM; phosphate buffer, pH 7.4, 25 °C; stacks on 5'-end G-tetrad.

For assay [12], the system named is BCL-2Mid-D (DNA, G4) GGGCGCGGGAGGAATTGGGCGGG
The assay is described as follows: native PAGE post-staining. The conditions noted are these: 20 μM ThT-E stain; band seen.

Assay [13] deals with CT4-D (DNA, G4) GGGCTTTTGGGC
The assay is described as follows: fluorescence light-up. The conditions noted are these: K+ 40 mM; 20 mM Tris-HCl, pH 7.4; 2 μM ThT-E, 2 μM DNA.

Assay [14] concerns ADAM10-D (DNA, G4) GGGGGACGGGTAGGGGCGGGAGGTAGGGG
The assay is described as follows: fluorescence light-up. The conditions noted are these: K+ 40 mM; 20 mM Tris-HCl, pH 7.4; 2 μM ThT-E, 2 μM DNA; 159-fold.

Assay [15] deals with 19AT-D (DNA, duplex) ACGTCGATTATAGACGAGC/GCTCGTCTATAATCGACGT
Kind of assay: native PAGE post-staining. Conditions: 20 μM ThT-E stain; no band; fluorescence rise below 3-fold.

The subject of assay [16] is TBA-D (DNA, G4) GGTTGGTGTGGTTGG
Kind of assay: fluorescence light-up. The conditions noted are these: K+ 40 mM; 20 mM Tris-HCl, pH 7.4; 2 μM ThT-E, 2 μM DNA.

Assay [17] relates to Bulges-TB1 (DNA, G4) TTGTGGTGGGTGGGTGGGT
Kind of assay: fluorescence light-up. Conditions: K+ 40 mM; 20 mM Tris-HCl, pH 7.4; 2 μM ThT-E; 46.05-fold.

Assay [18] has as its system 45Ag-D (DNA, G4) GGGTTAGGGTTAGGGTTAGGGTTAGGGTTAGGGTTAGGGTTAGGG
Kind of assay: fluorescence light-up. Conditions: K+ 40 mM; 20 mM Tris-HCl, pH 7.4; 2 μM ThT-E, 2 μM DNA; 146-fold.

Assay [19] concerns B-raf-D (DNA, G4) GGGCGGGGAGGGGGAAGGGA
Kind of assay: fluorescence light-up. Conditions: K+ 40 mM; 20 mM Tris-HCl, pH 7.4; 2 μM ThT-E, 2 μM DNA.

Assay [20] deals with 32 Kras-D (DNA, G4) AGGGCGGTGTGGGAAGAGGGAAGAGGGGGAGG
The assay is described as follows: CD titration. The conditions noted are these: no added salt; 20 mM Tris-HCl, pH 7.4; 0 to 30 μM ThT; induces parallel G4.

The test system of assay [21] is 35B1(Kras)-D (DNA, G4) AGGGCGGTGTGGGAAGAGGGAAGAGGGGGAGGCAG
The assay is described as follows: CD titration. The conditions noted are these: no added salt; 20 mM Tris-HCl, pH 7.4; 0 to 30 μM ThT; induces parallel G4.

Consider `CCN(CC)c1ccc(-c2sc3cc(C)ccc3[n+]2CC)cc1`, for which the dissociation constant in assay [1] is 74.73 µM; in [3], 56.81 µM; in [5], 17.78 µM. Besides, the binding result in [2] is listed as “yes”; in assay [4], “yes”; in assay [6] it was “yes”; in assay [7] it was “no”; in assay [8] it was “no”; in assay [9] it was “no”. Also, the binding entry in assay [10] is on record as “yes”; in assay [11], “yes”; in [12] it was “yes”; in assay [13] it was “weak”; in assay [14], “yes”; in assay [15], “no”. For the same compound, the binding entry in [16] is on record as “weak”; in assay [17], “yes”; in [18], “yes”; in [19], “yes”.
On to `Cc1ccc2c(c1)sc(-c1ccc(N(C)C)cc1)[n+]2C`, for which the dissociation constant was determined as 334.4 µM in assay [1], 233.4 µM in assay [3] and 22.03 µM in [5]. In addition, the binding entry in assay [20] and in assay [21] was “yes” in each case.
